Source: US12599136B2, “Substituted isophthalic acid diamides and their use as herbicides” (Bayer Aktiengesellschaft, priority 2020, dated 2026)

Columns and labels:
Assay type in all cases: in vivo
Abutilon theophrasti [1] = assay: Pre-emergence herbicidal action against ABUTH; conditions: visual score after 3 weeks vs untreated controls
Summary of the method: (§1)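 Sandy loam pots, seeds covered with soil, then surface-treated with WP or EC formulations at 600–800 l/ha water plus 0.2% wetting agent. Greenhouse, 3 weeks. Percent damage vs untreated controls.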

Alopecurus myosuroides [2] = assay: Pre-emergence herbicidal action against ALOMY; conditions: 80 g/ha; visual score after 3 weeks vs untreated controls
Summary of the method: as §1

Amaranthus retroflexus [3] = assay: Pre-emergence herbicidal action against AMARE; conditions: visual score after 3 weeks vs untreated controls
Summary of the method: as §1

Avena fatua [4] = assay: Pre-emergence herbicidal action against AVEFA; conditions: 80 g/ha; visual score after 3 weeks vs untreated controls
Summary of the method: as §1

Echinochloa crus-galli [5] = assay: Pre-emergence herbicidal action against ECHCG; conditions: 80 g/ha; visual score after 3 weeks vs untreated controls
Summary of the method: as §1

Matricaria inodora [6] = assay: Pre-emergence herbicidal action against MATIN; conditions: visual score after 3 weeks vs untreated controls
Summary of the method: as §1

Digitaria sanguinalis [7] = assay: Pre-emergence herbicidal action against DIGSA
Summary of the method: as §1

Setaria viridis [8] = assay: Pre-emergence herbicidal action against SETVI; conditions: 80 g/ha
Summary of the method: as §1

Veronica persica [9] = assay: Pre-emergence herbicidal action against VERPE; conditions: 80 g/ha
Summary of the method: as §1

Viola tricolor [10] = assay: Pre-emergence herbicidal action against VIOTR
Summary of the method: as §1

Abutilon theophrasti [11] = assay: Post-emergence herbicidal action against ABUTH; conditions: 20 g/ha
Summary of the method: (§2)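 Visual % rating (0% = as untreated, 100% = dead) ~3 wk after spraying one-leaf-stage plants grown in sandy loam; WP/EC in water at 600–800 l/ha, 0.2% wetting agent.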

Alopecurus myosuroides [12] = assay: Post-emergence herbicidal action against ALOMY; conditions: 20 g/ha
Summary of the method: as §2

Amaranthus retroflexus [13] = assay: Post-emergence herbicidal action against AMARE; conditions: 20 g/ha, visual assessment about 3 weeks after treatment
Summary of the method: as §2

Avena fatua [14] = assay: Post-emergence herbicidal action against AVEFA; conditions: 20 g/ha, visual assessment about 3 weeks after treatment
Summary of the method: as §2

Echinochloa crus-galli [15] = assay: Post-emergence herbicidal action against ECHCG; conditions: 20 g/ha, visual assessment about 3 weeks after treatment
Summary of the method: as §2

Matricaria inodora [16] = assay: Post-emergence herbicidal action against MATIN; conditions: visual assessment about 3 weeks after treatment
Summary of the method: as §2

Digitaria sanguinalis [17] = assay: Post-emergence herbicidal action against DIGSA
Summary of the method: as §2

Polygonum convolvulus = assay: Post-emergence herbicidal action against POLCO; conditions: 20 g/ha, visual assessment about 3 weeks after treatment
Protocol: Seeds of monocotyledonous and dicotyledonous weed and crop plants are laid out in sandy loam soil in wood-fiber pots, covered with soil and cultivated in a greenhouse under good growth conditions. 2 to 3 weeks after sowing, the test plants are treated at the one-leaf stage. The compounds of the invention, formulated in the form of wettable powders (WP) or as emulsion concentrates (EC), are then sprayed onto the green parts of the plants in the form of an aqueous suspension or emulsion at a water application rate equivalent to 600 to 800 l/ha, with addition of 0.2% wetting agent. After the test plants have been left to stand in the greenhouse under optimal growth conditions for about 3 weeks, the action of the preparations is assessed visually in comparison to untreated controls (herbicidal action in percent (%): 100% activity=the plants have died, 0% activity=like control plants). […] The tables below illustrate, in an illustrative manner, the post-emergence herbicidal action of the compounds of the invention, the herbicidal activity being stated in percent.

Setaria viridis [18] = assay: Post-emergence herbicidal action against SETVI; conditions: 20 g/ha, visual assessment about 3 weeks after treatment
Summary of the method: as §2

Veronica persica [19] = assay: Post-emergence herbicidal action against VERPE; conditions: 20 g/ha, visual assessment about 3 weeks after treatment
Summary of the method: as §2

Viola tricolor [20] = assay: Post-emergence herbicidal action against VIOTR
Summary of the method: as §2

Cc1c(C(=O)Nc2nnnn2C)ccc(C(F)(F)F)c1C(=O)N(C)CC(F)F [Example 1-24]
80%: Pre-emergence action against VIOTR (Viola tricolor [10]; 20 g/ha) | Post-emergence action against ABUTH (Abutilon theophrasti [11]) | Post-emergence action against AVEFA in % (Avena fatua [14]) | Post-emergence action against ECHCG in % (Echinochloa crus-galli [15]) | Post-emergence action against SETVI in % (Setaria viridis [18]) | Post-emergence action against VERPE in % (Veronica persica [19]) | Post-emergence action against VIOTR in % (Viola tricolor [20]; 5 g/ha)
90%: Pre-emergence action against ALOMY (Alopecurus myosuroides [2]) | Pre-emergence action against AVEFA (Avena fatua [4]) | Pre-emergence action against MATIN (Matricaria inodora [6]; 20 g/ha) | Post-emergence action against ALOMY (Alopecurus myosuroides [12]) | Post-emergence action against AMARE in % (Amaranthus retroflexus [13]) | Post-emergence action against MATIN in % (Matricaria inodora [16]; 5 g/ha) | Post-emergence action against MATIN in % (Matricaria inodora [16]; 20 g/ha) | Post-emergence action against VIOTR in % (Viola tricolor [20]; 20 g/ha)
100%: Pre-emergence action against ABUTH (Abutilon theophrasti [1]; 20 g/ha) | Pre-emergence action against ABUTH (Abutilon theophrasti [1]; 80 g/ha) | Pre-emergence action against AMARE (Amaranthus retroflexus [3]; 20 g/ha) | Pre-emergence action against AMARE (Amaranthus retroflexus [3]; 80 g/ha) | Pre-emergence action against ECHCG (Echinochloa crus-galli [5]) | Pre-emergence action against MATIN (Matricaria inodora [6]; 80 g/ha) | Pre-emergence action against DIGSA (Digitaria sanguinalis [7]; 20 g/ha) | Pre-emergence action against DIGSA (Digitaria sanguinalis [7]; 80 g/ha) | Pre-emergence action against SETVI (Setaria viridis [8]) | Pre-emergence action against VERPE (Veronica persica [9]) | Pre-emergence action against VIOTR (Viola tricolor [10]; 80 g/ha) | Post-emergence action against DIGSA in % (Digitaria sanguinalis [17]; 5 g/ha) | Post-emergence action against DIGSA in % (Digitaria sanguinalis [17]; 20 g/ha) | Post-emergence action against POLCO in % (Polygonum convolvulus)
